Numbers after ± are expanded uncertainties.
What was measured:
[1] = 101.33 kPa, Liquid; for speed of sound: Sing-around technique in a fixed-path interferometer; for mass density: Vibrating tube method
[2] = molar heat capacity at constant pressure; conditions: 101.33 kPa, Liquid, Small sample (50 mg) DSC

SMILES | speed of sound ([1]; 298.15 K) [m/s] | mass density ([1]; 298.15 K) [kg/m3] | speed of sound ([1]; 303.15 K) [m/s] | mass density ([1]; 303.15 K) [kg/m3] | speed of sound ([1]; 308.15 K) [m/s] | mass density ([1]; 308.15 K) [kg/m3] | molar heat capacity at constant pressure ([2]; 298.15 K) [J/K/mol] | molar heat capacity at constant pressure ([2]; 303.15 K) [J/K/mol] | molar heat capacity at constant pressure ([2]; 308.15 K) [J/K/mol]
Cc1ccccc1C [1,2-dimethylbenzene] | 1346.2 ± 0.8 | 875.91 ± 1 | 1326.2 ± 0.8 | 871.7 ± 1 | 1306.1 ± 0.8 | 867.48 ± 1 | 187.55 ± 2.9 | 189.11 ± 2.9 | 190.62 ± 3
Cc1ccccc1Cl [2-chlorotoluene] | 1298.7 ± 1 | 1077.3 ± 1 | 1280.7 ± 1 | 1072.5 ± 1 | 1262.7 ± 1 | 1067.6 ± 1 | 178.21 ± 2.8 | 180.01 ± 2.8 | 181.71 ± 2.8
c1ccccc1 [benzene] | 1299.4 ± 0.8 | 873.54 ± 1 | 1276.1 ± 0.82 | 868.2 ± 1 | 1252.9 ± 0.82 | 862.84 ± 1 | 135.18 ± 2.1 | 136.4 ± 2.1 | 137.61 ± 2.1
C1CCOCC1 [tetrahydropyran] | 1269.8 ± 0.9 | 879.13 ± 1 | 1246.8 ± 0.9 | 873.99 ± 1 | 1224.4 ± 0.9 | 868.83 ± 1 | 149.62 ± 2.3 | 151.22 ± 2.3 | 153.08 ± 2.4
Cc1ccccc1 [toluene] | 1304.6 ± 1 | 862.18 ± 1 | 1283.2 ± 1 | 857.51 ± 1 | 1261.8 ± 1 | 852.82 ± 1 | 157.18 ± 2.4 | 158.61 ± 2.5 | 160.09 ± 2.5
